Experimental data published in patent US20050084528A1, “Anti-platelet aggregation compositions” (priority 2003, published 2005).
Where two headings read alike, the source gives them in different places.

How the values were obtained:
[1] = system: platelet aggregation induced by AA; assay: Ex vivo platelet aggregation in platelet rich plasma of volunteers after a single oral dose, induced by arachidonic acid (1.6 mM); design: species or system human; details: for inhibition of platelet aggregation induced by AA (in words): single oral dose, 24 hours
Description: (§1) The PRP samples were treated in vitro with calcium ionophore (A23187, 2.5 μM) or arachidonic acid (AA, 1.6 mM) to induce maximal aggregation. Platelet aggregation was monitored using a Dual-channel Lumi-aggregometer (Model 400, Chronolog Corporation, USA) using 0.45 ml samples of PRP. The resulting aggregation was recorded for all of the samples and a comparison was made between the pre- and post-test drug ingestion aggregation levels. The data was analysed using the Student's t-test and differences were considered significant when probability (p) was <0.05.

[2] = system: platelet aggregation induced by A23187; assay: Ex vivo platelet aggregation in platelet rich plasma of volunteers after a single oral dose, induced by calcium ionophore A23187 (2.5 μM); design: species or system human; details: for inhibition of platelet aggregation induced by A23187 (in words): single oral dose, 24 hours; for % Inhibition A23187: aspirin 10 mg single oral dose, blood 24 hours after ingestion vs pre-dose, PRP, A23187 2.5 μM
Description: as §1

[3] = system: platelet aggregation induced by AA; details: Saeed et al. 1998; cited from earlier work
[4] = system: platelet aggregation induced by PAF; details: Saeed et al. 1998; cited from earlier work
[5] = system: platelet aggregation induced by adrenaline; details: Saeed et al. 1998; cited from earlier work
[6] = nimesulide at doses of 25 or 50 mg
[7] = aspirin at a dose of 20 mg or 40 mg

Compound: CS(=O)(=O)Nc1ccc([N+](=O)[O-])cc1Oc1ccccc1 [Nimesulide, N-(4-nitro-2-phenoxyphenyl)methanesulfonamide]
- inhibition of platelet aggregation induced by AA (in words) [1, 6]: effectively inhibited
- inhibition of platelet aggregation induced by A23187 (in words) [2, 6]: effectively inhibited
- inhibition of platelet aggregation induced by AA (in words) [3]: inhibit
- inhibition of platelet aggregation induced by PAF (in words) [4]: inhibit
- inhibition of platelet aggregation induced by adrenaline (in words) [5]: inhibits

Compound: CC(=O)Oc1ccccc1C(=O)O [Aspirin, 2-acetoxybenzoic acid]
- % Inhibition AA ([1]; aspirin 10 mg single oral dose, blood 24 hours after ingestion vs pre-dose, PRP, AA 1.6 mM): 4%
- inhibition of platelet aggregation induced by AA (in words) ([1]; aspirin 10 mg): ineffective
- inhibition of platelet aggregation induced by AA (in words) [1, 7]: effectively inhibited
- % Inhibition A23187 [2]: 27%
- % Inhibition A23187 ([2]; listed as aspirin): about 25%
- inhibition of platelet aggregation induced by A23187 (in words) [2, 7]: effectively inhibited
- inhibition of platelet aggregation induced by AA (in words) [3]: inhibit
- inhibition of platelet aggregation induced by PAF (in words) [4]: inhibit
